Measurements published in article PMC4109680, “Identification and Preclinical Pharmacology of the γ-Secretase Modulator BMS-869780” (International Journal of Alzheimer's Disease, 2014).

What was measured:
Aβ1-40 (H4-APPsw) = experiment: Aβ1-40 time-resolved fluorescence immunoassay in H4-APPsw cell cultures; type: cell-based, human; settings: for IC50: Homo sapiens, H4-APPsw cultures treated overnight
Protocol: H4-APPsw cell cultures were maintained on Dulbecco's modified Eagle's medium (DMEM) supplemented with L-glutamine (2 mM), fetal bovine serum (10%), and G418 (100 μg/mL). […] Aβ1-42 and Aβ1-40 assays, and Notch inhibition assays, were carried out as described previously. Mouse embryonic fibroblasts deficient in PS1 and PS2 (MEF dKO) were passaged twice per week in DMEM/F-12 medium, consisting of a 1 : 1 mixture of DMEM and F-12 nutrient mixture supplemented with 10% fetal bovine serum, penicillin, and streptomycin. For expression of human presenilin-1 in MEF dKO cells, the full length human presenilin-1 cDNA open reading frame was cloned between the BamHI and XhoI sites of the vector pcDNA5/FRT (Invitrogen), placing presenilin-1 expression under the control of the CMV promoter. The M146V mutated allele was introduced into the presenilin-1 expression construct by polymerase chain reaction using the oligonucleotide primers 5′-[…]-3′ and 5′-[…]-3 (QuikChange kit, Invitrogen). MEF dKO cultures were cotransfected with DNA constructs expressing APP-CTF, encoding the C-terminal 99 amino acids of APP [61] and either the human presenilin-1 or presenilin-1 M146V allele. Transfected cultures were incubated overnight at 37°C in 5% CO2 atmosphere and then harvested, resuspended in DMEM/F-12 medium, dispensed into 96-well culture plates, and incubated for 6 hours at 37°C in 5% CO2 atmosphere. Culture medium was then replaced with Ultraculture serum free medium (Lonza, Rockland, ME) with or without compounds at a range of concentrations and incubated overnight.
IC50 determinations for Aβ1-42 and Aβ1-40 in H4-APPsw cultures in 384-well format were determined using homogeneous time-resolved fluorescence immunoassays as previously described. The principle of these assays is illustrated in Figures 1(c) and 1(d). In other experiments using H4-APPsw cultures, Aβ was quantified by ELISA; for Aβ1-42 the combination of monoclonal antibodies was 26D6 and 565-HRP; for Aβ1-40 it was TSD and 26D6-HRP, and for Aβ1-x it was 4G8 and 26D6-HRP. In some experiments a novel 4-plex Aβ electrochemiluminescence immunoassay was used (Mesoscale Discovery catalog number N45ZA-1). Briefly, the 4-plex was carried out in 96-well format, with 4 separate spots of capture antibodies in each well. […] For Aβ in transiently transfected PS1/PS2 dKO fibroblasts, Aβ1-42 was quantified using an ELISA kit (WACO), and Aβ1-40 was quantified by ELISA as described above for H4-APPsw cultures. […] For the rat and mouse experiments illustrated in Figures 7 and 8, brain samples were prepared by solid phase extraction, and endogenous rat brain Aβ1-42 and Aβ1-40 were quantified by ELISA as previously described for wild type mice. […]

mNotch1ΔE = experiment: Notch signaling CBF1-luciferase reporter assay in HeLa cells transfected with mNotch1ΔE; type: cell-based; settings: for IC50: HeLa, treated overnight; for mNotch1ΔE/Aβ1-42: ratio of IC50 values
Protocol: Inhibition of Notch signaling in cultured cells using a mouse-derived truncated Notch1 transgene, mNotch-ΔE [67], has been described in detail previously. Western blots for mNotchΔ1865 and NICD using 9E10 anti-c-myc monoclonal were carried out as previously described.
The effect of BMS-869780 on Notch processing was evaluated using transcriptional reporter assays and western blotting of NICD levels. HeLa cell cultures were transfected with mNotch1ΔE and CBF1-luciferase reporter constructs and treated with BMS-869780. In most replicates of this experiment, inhibition of luciferase reporter occurred with IC50 > 10 μM. […] To further evaluate the effect of BMS-869780 on Notch processing, western blots of cell cultures were carried out using mNotch1Δ1865, a truncated version of mNotch1ΔE that facilitates separation of NICD product from mNotch1 substrate on western blots. HeLa cell cultures were transfected with mNotch1Δ1865 and treated overnight with compounds before western blotting. […] Furthermore, the GSIs caused an increased level of mNotch1Δ1865 substrate, most likely due to inhibition of its turnover by γ-secretase, as previously noted by Blat et al..
(b) HeLa cell cultures were transfected with mNotchΔ1865, treated with compounds overnight, and cell extracts were evaluated by western blot using anti-c-myc-HRP conjugate. Lanes 1 and 9: DMSO (0.1%) vehicle. Lane 2: BMS-299897 at 1 μM. Lane 3: BMS-433796 at 0.3 μM. Lanes 4–8: BMS-869780 at 0.1, 0.3, 1, 3, and 10 μM, respectively.

## COc1cc(Nc2nc3n(n2)CCCC[C@H]3c2ccc(F)cc2)ccc1-n1cnc(Cl)c1 [BMS-869780]
Aβ1-40 (H4-APPsw); H4-APPsw
  shift in IC50 values between Aβ1-42 and Aβ1-40: 4 fold
Aβ1-40 (H4-APPsw)
  IC50: 24.1 nM
mNotch1ΔE
  IC50: > 10000 nM
  mNotch1ΔE/Aβ1-42: >1785x
mNotch1ΔE; based on IC50 >10 μM for Notch
  ratio of Notch to Aβ1-42 IC50s: > 1785 fold

## C[C@H](c1ccc(F)cc1CCCC(=O)O)N(c1cc(F)ccc1F)S(=O)(=O)c1ccc(Cl)cc1 [BMS-299897, reference compound]
Aβ1-40 (H4-APPsw)
  IC50: 1.3 nM
mNotch1ΔE; GSIs
  Notch/Aβ1-42 IC50 ratios: 723
mNotch1ΔE
  IC50: 340 nM
  mNotch1ΔE/Aβ1-42: 723x
